The text below walks through data of patent US12473304B2, “Heterocyclic PAD4 inhibitors” (BRISTOL-MYERS SQUIBB COMPANY, priority 2020, dated 2025).

SMILES strings stand for the structures.

The target of this test is human PAD4 (hPAD4) (Homo sapiens (Human), UniProt Q9UM07). Nature of the test: RFMS Human PAD4 Functional Assay 1. It counts as biochemical. The settings on record: RFMS assay 1; 5 nM hPAD4, 250 μM BAEE substrate, 50 μM calcium, 37° C. The method in brief:
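Citrullination product read by RapidFire triple-quad MRM against a modified-citrulline internal standard, after TCA stop and 30 min phenyl glyoxal step at 37 °C. Reaction: 250 μM BAEE, 5 nM human PAD4, 90 min at 37 °C, pH 7.5 HEPES buffer with 50 μM calcium and 5 μM TPEN, following 30 min compound–enzyme preincubation (max 50 μM).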

human PAD4 (hPAD4), sequence (Q9UM07 whole entry): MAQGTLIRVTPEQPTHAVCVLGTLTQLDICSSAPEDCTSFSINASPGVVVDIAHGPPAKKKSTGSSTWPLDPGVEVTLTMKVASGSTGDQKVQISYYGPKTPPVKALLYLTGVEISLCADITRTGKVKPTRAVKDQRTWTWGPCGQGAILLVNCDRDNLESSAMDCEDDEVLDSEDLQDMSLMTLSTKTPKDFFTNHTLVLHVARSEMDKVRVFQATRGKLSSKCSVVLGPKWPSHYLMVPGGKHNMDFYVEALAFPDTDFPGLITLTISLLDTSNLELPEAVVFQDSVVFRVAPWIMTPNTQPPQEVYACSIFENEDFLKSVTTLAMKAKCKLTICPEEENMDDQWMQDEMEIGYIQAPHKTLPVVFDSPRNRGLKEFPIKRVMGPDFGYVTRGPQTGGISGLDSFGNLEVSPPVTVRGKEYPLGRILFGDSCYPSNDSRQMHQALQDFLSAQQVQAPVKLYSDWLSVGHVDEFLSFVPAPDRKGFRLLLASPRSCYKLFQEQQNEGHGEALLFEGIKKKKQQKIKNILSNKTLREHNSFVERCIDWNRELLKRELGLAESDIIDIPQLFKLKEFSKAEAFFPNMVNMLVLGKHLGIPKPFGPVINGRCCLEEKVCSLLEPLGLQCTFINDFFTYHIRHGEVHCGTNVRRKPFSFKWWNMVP

Regarding `Cc1c(-c2cc3ccc(-c4ccc5c(c4)CNC5=O)nc3n2CC2CC2)oc2cc(C(=O)N3CC4CCC3[C@@H]4N)ccc12` (stereo partly drawn) [Example 168, 5-(2-(6-((7R)-7-Amino-2-azabicyclo[2.2.1]heptane-2-carbonyl)-3-methylbenzofuran-2-yl)-1-(cyclopropylmethyl)-1H-pyrrolo[2,3-b]pyridin-6-yl)isoindolin-1-one], the IC50 turned out to be 47 nM.
Take `Cc1c(-c2cc3ccc(-c4ccn5c(C)nnc5c4)cc3n2CC2CC2)nn2cc(C(=O)N3CCC[C@@H](N)C3)ccc12` [Example 349, (R)-(3-Aminopiperidin-1-yl)(2-(1-(cyclopropylmethyl)-6-(3-methyl-[1,2,4]triazolo[4,3-a]pyridin-7-yl)-1H-indol-2-yl)-3-methylpyrazolo[1,5-a]pyridin-6-yl)methanone]: the IC50 was 100 nM.
Take `Cc1c(-c2cc3ccnc(OCCn4ccnc4)c3n2CC2CC2)nn2cc(C(=O)N3CCC[C@@H](N)C3)ccc12` [Example 617, (R)-(2-(7-(2-(1H-lmidazol-1-yl)ethoxy)-1-(cyclopropylmethyl)-1H-pyrrolo[2,3-c]pyridin-2-yl)-3-methylpyrazolo[1,5-a]pyridin-6-yl)(3-aminopiperidin-1-yl)methanone]: the IC50 is 10 nM.
Turning to `Cc1c(-c2cc3ccc(Cl)nc3n2CC2CC2)oc2cc(C(=O)N3CC4CCC3[C@@H]4N)ccc12` (stereo partly drawn) [Example 165, ((7R)-7-Amino-2-azabicyclo[2.2.1]heptan-2-yl)(2-(6-chloro-1-(cyclopropylmethyl)-1H-pyrrolo[2,3-b]pyridin-2-yl)-3-methylbenzofuran-6-yl)methanone], the IC50 amounted to 198 nM.
In the case of `COc1cc(C(=O)N2CCC[C@@H](N)C2)cn2nc(-c3cc4ccc(N5CCC(OC)CC5)cc4n3CC3CC3)c(C)c12` [Example 249, (3R)-1-{2-[1-(Cyclopropylmethyl)-6-(4-methoxypiperidin-1-yl)-1H-indol-2-yl]-4-methoxy-3-methylpyrazolo[1,5-a]pyridine-6-carbonyl}piperidin-3-amine], the IC50 was 80 nM.
`COc1cc(C(=O)N2CCC[C@@H](N)C2)cn2nc(-c3cc4ccc(-c5ccc(NC(C)=O)nc5)cc4n3CC3CC3)c(C)c12` [Example 240, N-[5-(2-{6-[(3R)-3-Aminopiperidine-1-carbonyl]-4-methoxy-3-methylpyrazolo[1,5-a]pyridin-2-yl}-1-(cyclopropylmethyl)-1H-indol-6-yl)pyridin-2-yl]acetamide]: the IC50 turned out to be 180 nM.
For `COc1cc(C(=O)N2CCC[C@@H](N)C2)cn2nc(-c3cc4cccc(C5CCN(C(=O)C6CCCCO6)CC5)c4n3CC3CC3)c(C)c12` (single isomer, unassigned) [Example 386], the IC50 amounted to 80 nM.
Take `Cc1c(-c2cc3ccc(-c4ccc5c(c4)C(=O)NC5)nc3n2CC2CC2)nn2cc(C(=O)N3C[C@H](N)C[C@@H](F)C3)ccc12` [Example 83, 6-(2-(6-((3R,5R)-3-Amino-5-fluoropiperidine-1-carbonyl)-3-methylpyrazolo[1,5-a]pyridin-2-yl)-1-(cyclopropylmethyl)-1H-pyrrolo[2,3-b]pyridin-6-yl)isoindolin-1-one]: the IC50 came out at 384 nM.
With `COc1cc(C(=O)N2CCC[C@@H](N)C2)cn2nc(-c3cc4cccc(OCC5CC(=O)N(C)C5)c4n3CC3CC3)c(C)c12` (single isomer, unassigned) [Example 552], the IC50 was 100 nM.
Consider `Cc1c(-c2cc3cc(F)cc(C4CCN(C(=O)C5CCCCO5)CC4)c3n2CC2CC2)nn2cc(C(=O)N3CCC[C@@H](N)C3)ccc12` (mixture of isomers) [Example 508, ((R)-3-Aminopiperidin-1-yl)(2-(1-(cyclopropylmethyl)-5-fluoro-7-(1-(tetrahydro-2H-pyran-2-carbonyl)piperidin-4-yl)-1H-indol-2-yl)-3-methylpyrazolo[1,5-a]pyridin-6-yl)methanone], for which the IC50 was found to be 40 nM.

What is called IC50 is the concentration that inhibits the measured activity by half.
